# Results as given in patent US7425557B2, “Inhibitors of glycogen synthase kinase 3” (Novartis Vaccines and Diagnostics, Inc., priority 1998, dated 2008).
# Molecular target: human GSK3β (Homo sapiens, UniProt P49841)
# Experiment: Screening for GSK3 inhibitory activity using a cell-free assay
# Type: biochemical
# Conditions: read-out: IC50 with respect to GSK3
# Summary of the method: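 Radiometric cell-free assay with recombinant human GSK3β phosphorylating a biotinylated peptide substrate for 3 h. Reactions were stopped with 50 μM ATP/20 mM EDTA and captured on streptavidin plates. Incorporated radiolabel was counted by scintillation and plotted against compound concentration.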
# human GSK3β, sequence (P49841 whole entry): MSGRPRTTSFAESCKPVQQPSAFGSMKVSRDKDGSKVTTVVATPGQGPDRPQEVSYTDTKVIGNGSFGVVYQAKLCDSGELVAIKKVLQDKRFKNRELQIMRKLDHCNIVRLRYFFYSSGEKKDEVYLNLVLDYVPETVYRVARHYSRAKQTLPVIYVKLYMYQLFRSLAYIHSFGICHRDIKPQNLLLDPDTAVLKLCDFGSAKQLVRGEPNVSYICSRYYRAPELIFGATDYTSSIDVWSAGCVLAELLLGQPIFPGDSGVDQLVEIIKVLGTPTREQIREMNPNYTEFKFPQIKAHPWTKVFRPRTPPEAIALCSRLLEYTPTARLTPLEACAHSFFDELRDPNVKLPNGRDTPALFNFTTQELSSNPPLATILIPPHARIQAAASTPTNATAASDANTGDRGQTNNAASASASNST
row,Compound,IC50 [µM]
1,CS(=O)(=O)c1cnc(NCCNc2ccc([N+](=O)[O-])cn2)nc1-c1ccc(C#N)cc1 [4-[5-(methylsulfonyl)-2-({2-[(5-nitro(2-pyridyl))amino]ethyl}amino)pyrimidin-4-yl]benzenecarbonitrile],≤ 1
2,N#Cc1ccc(-c2nc(NCCNc3ccc([N+](=O)[O-])cn3)ncc2C(=O)N2CCOCC2)cc1 [4-[5-(morpholin-4-ylcarbonyl)-2-({2-[(5-nitro(2-pyridyl))amino]ethyl}-amino)pyrimidin-4-yl]benzenecarbonitrile],≤ 1
3,N#Cc1ccc(-c2nc(NCCNc3ccc([N+](=O)[O-])cn3)ncc2-c2ncc[nH]2)cc1 [4-[5-imidazol-2-yl-2-({2-[(5-nitro(2-pyridyl))amino]ethyl}amino)pyrimidin-4-yl]benzenecarbonitrile],≤ 1
4,N#Cc1ccc(-c2nc(NCCNc3ccc([N+](=O)[O-])cn3)ncc2[N+](=O)[O-])cc1 [4-[5-nitro-2-({2-[(5-nitro(2-pyridyl))amino]ethyl}amino)pyrimidin-4-yl]benzenecarbonitrile],≤ 10
5,"CN(C)CCc1noc(-c2cnc(NCCNc3ccc([N+](=O)[O-])cn3)nc2-c2ccc(C#N)cc2)n1 [4-[5-{3-[2-(dimethylamino)ethyl](1,2,4-oxadiazol-5-yl)}-2-({2-[(5-nitro(2-pyridyl))amino]-ethyl}amino)pyrimidin-4-yl]benzenecarbonitrile]",≤ 1
6,O=C(O)c1c(-c2ccc([N+](=O)[O-])cc2)nc(NCCNc2ccc([N+](=O)[O-])cn2)nc1C1CCCCC1 [4-cyclohexyl-2-({2-[(5-nitro(2-pyridyl))amino]ethyl}amino)-6-(4-nitrophenyl)pyrimidine-5-carboxylic acid],≤ 10
7,Cc1nc(NCCNc2ccc([N+](=O)[O-])cn2)ncc1C(=O)O [4-methyl-2-({2-[(5-nitro(2-pyridyl))amino]ethyl}amino)pyrimidine-5-carboxylic acid],≤ 10
8,"NC(=O)c1ccc(-c2ccnc(NCC(c3ccccc3)c3ccccc3)n2)cc1 [4-{2-[(2,2-diphenylethyl)amino]pyrimidin-4-yl}-benzamide]",≤ 10
9,N#Cc1ccc(-c2ccnc(NCCc3ccccn3)n2)cc1 [4-{2-[(2-(2-pyridyl)ethyl)-amino]pyrimidin-4-yl}benzenecarbonitrile],≤ 10
10,NC(=O)c1ccc(-c2ccnc(NCCc3ccccn3)n2)cc1 [4-{2-[(2-(2-pyridyl)ethyl)amino]pyrimidin-4-yl}benzamide],≤ 1
11,NC(=O)c1ccc(-c2ccnc(NCCOc3ccccc3)n2)cc1 [4-{2-[(2-phenoxyethyl)amino]pyrimidin-4-yl}benzamide],≤ 10
12,CC(CNc1nccc(-c2ccc(C(N)=O)cc2)n1)c1ccccc1 (stereo not drawn) [4-{2-[(2-phenylpropyl)amino]pyrimidin-4-yl}benzamide],≤ 1
13,NC(=O)c1ccc(-c2ccnc(NCCNc3ccc(C(N)=S)cn3)n2)cc1 [4-{2-[(2-{[5-(aminothioxomethyl)-2-pyridyl]amino}ethyl)amino]pyrimidin-4-yl}benzamide],≤ 1
14,NC(=O)c1ccc(-c2ccnc(NCCNc3ccc(C(F)(F)F)cn3)n2)cc1 [4-{2-[(2-{[5-(trifluoromethyl)-2-pyridyl]amino}-ethyl)amino]pyrimidin-4-yl}benzamide],≤ 1
15,NC(=O)c1ccc(-c2ccnc(NCCCOc3ccc4ccccc4c3)n2)cc1 [4-{2-[(3-(2-naphthyloxy)propyl)amino]pyrimidin-4-yl}benzamide],≤ 10
16,NC(=O)c1ccc(-c2ccnc(NCCCOc3ccc4ncccc4c3)n2)cc1 [4-{2-[(3-(6-quinolyloxy)propyl)-amino]pyrimidin-4-yl}benzamide],≤ 10
17,NC(=O)c1ccc(-c2ccnc(NCCCOc3ccccc3)n2)cc1 [4-{2-[(3-phenoxypropyl)amino]pyrimidin-4-yl}benzamide],≤ 10
18,NC(=O)c1ccc(-c2ccnc(NCCCCc3ccccc3)n2)cc1 [4-{2-[(4-phenylbutyl)amino]-pyrimidin-4-yl}benzamide],≤ 10
19,NC(=O)c1ccc(-c2ccnc(NCc3ccncc3)n2)cc1 [4-{2-[(4-pyridylmethyl)amino]pyrimidin-4-yl}benzamide],≤ 10
20,CC(=O)Nc1cccc(-c2cccc(CNc3nccc(-c4ccc(C(N)=O)cc4)n3)c2)c1 [4-{2-[({3-[3-(acetylamino)phenyl]phenyl}methyl)amino]pyrimidin-4-yl}benzamide],≤ 10
21,NC(=O)c1ccc(-c2ccnc(NCc3cccc(-c4cccc(C(F)(F)F)c4)c3)n2)cc1 [4-{2-[({3-[3-(trifluoromethyl)phenyl]phenyl}methyl)amino]pyrimidin-4-yl}benzamide],≤ 10

row,Compound,IC50 [µM]
1,O=C(O)c1c(-c2ccccc2)nc(NCCNc2ccc([N+](=O)[O-])cn2)nc1-c1ccccc1F [6-(2-fluorophenyl)-2-({2-[(5-nitro(2-pyridyl))amino]ethyl}amino)-4-phenyl-pyrimidine-5-carboxylic acid],≤ 10
2,CCc1ccc(-c2nc(N(C)CCNc3ccc(C#N)cn3)ccc2N2CCN(C)CC2=O)cc1 [6-({2-[[6-(4-ethylphenyl)-5-(4-methyl-2-oxo-1-piperazinyl)-2-pyridinyl](methyl)amino]ethyl}amino)nicotinonitrile],≤ 10
3,"CN1CCN(c2cnc(NCCNc3ccc(C#N)cn3)nc2-c2ccc(Cl)cc2Cl)C(=O)C1 [6-[(2-{[4-(2,4-dichlorophenyl)-5-(4-methyl-2-oxo-1-piperazinyl)-2-pyrimidinyl]amino}ethyl)amino]-nicotinonitrile]",≤ 10
4,"N#Cc1ccc(NCCNc2ncc(-c3ncc[nH]3)c(-c3ccc(Cl)cc3Cl)n2)nc1 [6-[(2-{[4-(2,4-dichlorophenyl)-5-imidazol-2-ylpyrimidin-2-yl]amino}ethyl)amino]pyridine-3-carbonitrile]",≤ 1
5,"N#Cc1ccc(NCCNCc2ncc(-c3ncc[nH]3)c(-c3ccc(Cl)cc3Cl)n2)nc1 [6-[(2-{[4-(2,4-dichlorophenyl)-5-imidazol-2-ylpyrimidin-2-yl]methylamino}ethyl)amino]pyridine-3-carbonitrile]",≤ 1
6,N#Cc1ccc(NCCNc2ncc(-c3ncc[nH]3)c(-c3ccc(F)cc3Cl)n2)nc1 [6-[(2-{[4-(2-chloro-4-fluorophenyl)-5-imidazol-2-ylpyrimidin-2-yl]amino}ethyl)amino]pyridine-3-carbonitrile],≤ 1
7,Cc1c[nH]c(-c2cnc(NCCNc3ccc(C#N)cn3)nc2-c2ccc(Br)cc2Cl)n1 [6-[(2-{[4-(4-bromo-2-chlorophenyl)-5-(4-methylimidazol-2-yl)pyrimidin-2-yl]amino}ethyl)amino]pyridine-3-carbonitrile],≤ 1
8,N#Cc1ccc(NCCNc2ncc(-c3ncc[nH]3)c(-c3ccc(Br)cc3Cl)n2)nc1 [6-[(2-{[4-(4-bromo-2-chlorophenyl)-5-imidazol-2-ylpyrimidin-2-yl]amino}ethyl)amino]pyridine-3-carbonitrile],≤ 1
9,CCOC(=O)c1cnc(NCCNc2ccc(C(=O)O)cn2)nc1-c1ccc(C#N)cc1 [6-[(2-{[4-(4-cyanophenyl)-5-(ethoxycarbonyl)pyrimidin-2-yl]amino}ethyl)amino]pyridine-3-carboxylic acid],≤ 10
10,"CN1CCN(c2ccc(NCCNc3ccc(C#N)cn3)nc2-c2ccc(Cl)cc2Cl)C(=O)C1 [6-[(2-{[6-(2,4-dichlorophenyl)-5-(4-methyl-2-oxo-1-piperazinyl)-2-pyridinyl]amino}ethyl)amino]nicotinonitrile]",≤ 10
11,"Cc1cn(-c2ccc(NCCNc3ccc(C#N)cn3)nc2-c2ccc(Cl)cc2Cl)cn1 [6-[(2-{[6-(2,4-dichlorophenyl)-5-(4-methylimidazolyl)-2-pyridyl]-amino}ethyl)amino]pyridine-3-carbonitrile]",≤ 1
12,"N#Cc1ccc(NCCNc2ccc(-n3ccnc3)c(-c3ccc(Cl)cc3Cl)n2)nc1 [6-[(2-{[6-(2,4-dichlorophenyl)-5-imidazolyl-2-pyridyl]amino}ethyl)amino]pyridine-3-carbonitrile]",≤ 1
13,CCc1ccc(-c2nc(NCCNc3ccc(C#N)cn3)ccc2N2CCN(C)CC2=O)cc1 [6-[(2-{[6-(4-ethylphenyl)-5-(4-methyl-2-oxo-1-piperazinyl)-2-pyridinyl]amino}ethyl)amino]nicotinonitrile],≤ 10
14,Cc1nc(NCCNc2ccc([N+](=O)[O-])cn2)nc(-c2ccccc2)c1C(=O)O [6-methyl-2-({2-[(5-nitro(2-pyridyl))amino]ethyl}amino)-4-phenylpyrimidine-5-carboxylic acid],≤ 10
15,N#Cc1ccc(NCCNc2ccc([N+](=O)[O-])c(NCc3ccccc3)n2)nc1 [6-{[2-({5-nitro-6-[benzylamino]-2-pyridyl}amino)ethyl]amino}pyridine-3-carbonitrile],≤ 10
16,"CN(C)CCc1noc(-c2cnc(NCCNc3ccc([N+](=O)[O-])c(N)n3)nc2-c2ccc(Cl)cc2Cl)n1 [(2-{5-[2-({2-[(6-amino-5-nitro(2-pyridyl))amino]-ethyl}amino)-4-(2,4-dichlorophenyl)pyrimidin-5-yl](1,2,4-oxadiazol-3-yl)}ethyl)-dimethylamine]",≤ 1
17,c1ccc(-c2ccnc(NCCc3ccccn3)n2)cc1 [(4-phenylpyrimidin-2-yl)(2-(2-pyridyl)ethyl)amine],≤ 10
18,c1ccc(-c2ccnc(NCCNc3ccccn3)n2)cc1 [(4-phenylpyrimidin-2-yl)[2-(2-pyridylamino)ethyl]amine],≤ 10
19,O=[N+]([O-])c1ccc(NCCNc2nccc(NCc3cccc(Br)c3)n2)nc1 [(4-{[(3-bromophenyl)methyl]amino}pyrimidin-2-yl){2-[(5-nitro(2-pyridyl))amino]ethyl}-amine],≤ 10
20,O=[N+]([O-])c1cnc(NCCNc2ccccn2)nc1-c1ccccc1 [(5-nitro-4-phenylpyrimidin-2-yl)[2-(2-pyridylamino)ethyl]amine],≤ 1
21,"O=[N+]([O-])c1ccc(NCCNc2ccc([N+](=O)[O-])c(NCc3ccc(Cl)cc3Cl)n2)nc1 [(6-{[(2,4-dichlorophenyl)methyl]amino}-5-nitro(2-pyridyl)){2-[(5-nitro(2-pyridyl))amino]ethyl}amine]",≤ 10
